According to patent publication US4160829A, “Antibacterial 1,2,4-oxadiazolylacetamido cephalosporins” (Gist-Brocades N.V., priority 1972, dated 1979):
Values after ≈ are worked out from the molar mass of the structure shown. Where two headings read alike, the source gives them in different places.

Tests used:
Shig.equir. T 3 = assay: agar serial dilution test; format: cell-based; conditions: 37° C., read-out: minimal inhibitory concentration (MIC)
Strep.haem. A 266 = assay: agar serial dilution test; format: cell-based, Streptococcus haemolyticus; conditions: Streptococcus, read-out: minimal inhibitory concentration (MIC)
Prot.morg. 2241 = assay: agar serial dilution test; format: cell-based; conditions: read-out: minimal inhibitory concentration (MIC)
[1] = test system: Pseud.aerug. Wyeth A 1058; assay: agar serial dilution test; format: cell-based; conditions: read-out: minimal inhibitory concentration (MIC)
Prot.mirab. H 3 = assay: agar serial dilution test; format: cell-based, Proteus mirabilis; conditions: Proteus mirabilis
Strep. faec. L 80 = assay: agar serial dilution test; format: cell-based, Streptococcus faecalis; conditions: Enterococcus faecalis, read-out: minimal inhibitory concentration (MIC)
Prot.rettg. A 821 = assay: agar serial dilution test; format: cell-based, Proteus rettgeri; conditions: Providencia rettgeri, read-out: minimal inhibitory concentration (MIC)
Haem.infl. A 1030 = assay: micro serial dilution test; format: cell-based; conditions: read-out: minimal inhibitory concentration (MIC)
Staph.aureus A 355 [2] = assay: agar serial dilution test; conditions: Staphylococcus aureus, A355, 24 h
Staph.aureus A 2001 [3] = assay: micro serial dilution test; format: cell-based, Staphylococcus aureus; conditions: Staphylococcus aureus, micro serial dilution (in brackets), about 18 hours, 30° C. or 37° C., read-out: minimal inhibitory concentration (MIC)
Salm.dubl. P 43 = assay: agar serial dilution test; format: cell-based, Salmonella dublin; conditions: Salmonella enterica, read-out: minimal inhibitory concentration (MIC)
Kleb.pneum. A 809 = assay: agar serial dilution test; format: cell-based, Klebsiella pneumoniae; conditions: Klebsiella pneumoniae, read-out: minimal inhibitory concentration (MIC)
Esch.coli U 20 = assay: agar serial dilution test; format: cell-based, Escherichia coli; conditions: Escherichia coli
Staph.aureus A 355 [4] = assay: micro serial dilution test; format: cell-based, Staphylococcus aureus; conditions: Staphylococcus aureus, A355; micro serial dilution (in brackets), about 18 hours, 30° C. or 37° C.; penicillinase-producing strain; read-out: minimal inhibitory concentration (MIC)
Text: Two drops of a stock solution of the test compound (antibiotic) in a known concentration were brought into the first hole of a test plate with 9 numbered holes with a sterile Pasteur pipette. After rinsing this pipette three times with a physiological NaCl-solution, two drops of a stock solution of the test organism in a culture medium were brought in all the holes except for hole 8. In the first hole, the solution of the tested compound had been half diluted, then by stirring the liquid in the first hole and adding two drops of this mixture to the second hole and so on until hole 8, dilutions of the test compound solution were obtained in geometrical progression. The hole 9 contained no antibiotic and served for checking the growth of the testogranism in a blank medium. The test plate was incubated at 30° C. or 37° C. for about 18 hours.
^1 Penicillinase-producing strain

Prot.mirab. L 93 = assay: agar serial dilution test; format: cell-based, Proteus mirabilis; conditions: Proteus mirabilis
Bruc.melit. A 488 = assay: microbe, parasite or virus in culture; format: cell-based; conditions: Brucella melitensis, 24 h, read-out: minimal inhibitory concentration (MIC)
Pseud.aerug. 2396 = assay: agar serial dilution test; format: cell-based; conditions: read-out: minimal inhibitory concentration (MIC)
Staph.aureus A 2000 [5] = assay: agar serial dilution test; format: cell-based, Staphylococcus aureus; conditions: Staphylococcus aureus, read-out: minimal inhibitory concentration (MIC)
Bac.Subt.ATCC 6633 = assay: agar serial dilution test; format: cell-based, Bacillus subtilis; conditions: Bacillus subtilis, read-out: minimal inhibitory concentration (MIC)
Past.multo. A 723 = assay: agar serial dilution test; format: cell-based, Pasteurella multocida; conditions: Pasteurella multocida, read-out: minimal inhibitory concentration (MIC)
Staph.aureus A 321 = assay: agar serial dilution test; format: cell-based, Staphylococcus aureus; conditions: Staphylococcus aureus, read-out: minimal inhibitory concentration (MIC)
Pseud.aerug. H 10 = assay: agar serial dilution test; format: cell-based; conditions: read-out: minimal inhibitory concentration (MIC)
Dipl.pneum. L 54 = assay: agar serial dilution test; format: cell-based, Diplococcus pneumoniae; conditions: Streptococcus pneumoniae, read-out: minimal inhibitory concentration (MIC)
Prot.mirab. A 1200 = assay: agar serial dilution test; format: cell-based, Proteus mirabilis; conditions: Proteus mirabilis, 24 h, agar serial dilution, 24 hours, 37° C.; read-out: minimal inhibitory concentration (MIC)
Staph.aureus A 2000 [6] = assay: micro serial dilution test; format: cell-based, Staphylococcus aureus; conditions: Staphylococcus aureus, A2000, 18 h, micro serial dilution (in brackets), about 18 hours, 30° C. or 37° C.; read-out: minimal inhibitory concentration (MIC)
Salm.typh. R 127 = assay: agar serial dilution test; format: cell-based; conditions: 24 h, 37° C., read-out: minimal inhibitory concentration (MIC)
Staph.aureus A 2001 [7] = assay: agar serial dilution test; format: cell-based, Staphylococcus aureus; conditions: Staphylococcus aureus, A2001, 24 h, agar serial dilution, 24 hours, 37° C.; read-out: minimal inhibitory concentration (MIC)
[8] = agar serial dilution, 24 hours, 37° C.
[9] = 24 h, agar serial dilution, 24 hours, 37° C., read-out: minimal inhibitory concentration (MIC)
[10] = read-out: minimal inhibitory concentration (MIC)
[11] = 24 h, agar serial dilution, 24 hours, 37° C.
[12] = agar serial dilution, 24 hours, 37° C., read-out: minimal inhibitory concentration (MIC)
[13] = 18 h, micro serial dilution (in brackets), about 18 hours, 30° C. or 37° C.
[14] = read-out: minimal inhibitory concentration (MIC), agar serial dilution, 24 hours, 37° C., penicillinase-producing strain
[15] = U20, agar serial dilution, 24 hours, 37° C., read-out: minimal inhibitory concentration (MIC)
[16] = A2000, 24 h, agar serial dilution, 24 hours, 37° C.
[17] = ATCC6633, 24 h, agar serial dilution, 24 hours, 37° C.
[18] = A321, 24 h, agar serial dilution, 24 hours, 37° C.
[19] = 24 h, read-out: minimal inhibitory concentration (MIC), agar serial dilution, 24 hours, 37° C.

Structure (SMILES) | MIC (Shig.equir. T 3; 24 h) [µg/mL] | MIC (Strep.haem. A 266; [8]) [µg/mL] | MIC [1, 8] [µg/mL] | MIC (Strep. faec. L 80; [8]) [µg/mL] | MIC (Staph.aureus A 355 [2]; [10]) [µg/mL] | MIC (Salm.dubl. P 43; [8]) [µg/mL] | MIC (Kleb.pneum. A 809; [8]) [µg/mL] | MIC (Staph.aureus A 355 [4]) [µg/mL] | MIC (Bruc.melit. A 488) [µg/mL] | MIC (Pseud.aerug. 2396; [8]) [µg/mL] | MIC (Past.multo. A 723; [8]) [µg/mL] | MIC (Pseud.aerug. H 10; [8]) [µg/mL] | MIC (Dipl.pneum. L 54; [8]) [µg/mL] | MIC (Prot.morg. 2241; [11]) [µg/mL] | MIC (Prot.mirab. H 3; [12]) [µg/mL] | MIC (Prot.mirab. A 1200) [µg/mL] | MIC (Prot.rettg. A 821; [11]) [µg/mL] | MIC (Haem.infl. A 1030; [13]) [µg/mL] | MIC (Staph.aureus A 355 [2]; [14]) [µg/mL] | MIC (Staph.aureus A 2001 [3]; A2001, 18 h) [µg/mL] | further results
CC(=O)OCC1=C(C(=O)O)N2C(=O)[C@@H](NC(=O)Cc3ccccc3)[C@H]2SC1 [Cephalosporin G, reference compound] | 25 (≈ 64 µM) | 0.03 (≈ 0.0768 µM) | > 100 | 25 (≈ 64 µM) | 1.5 (≈ 3.84 µM) | 6 (≈ 15.4 µM) | 1 (≈ 2.56 µM) | 1.8 (≈ 4.61 µM) | 2 (≈ 5.12 µM) | > 100 | 1 (≈ 2.56 µM) | > 100 | 0.06 (≈ 0.154 µM) |  |  |  |  |  |  |  | MIC (Prot.morg. 2241; [8]): > 100 µg/mL; MIC (Prot.mirab. H 3; [9]): 25 µg/mL (≈ 64 µM); MIC (Prot.rettg. A 821; [8]): 25 µg/mL (≈ 64 µM); MIC (Haem.infl. A 1030; micro serial dilution (in brackets), about 18 hours, 30° C. or 37° C.): 125 µg/mL (≈ 320 µM); MIC (Staph.aureus A 2001 [3]; A2001): 0.9 µg/mL (≈ 2.31 µM); MIC (Esch.coli U 20; U20, 24 h, agar serial dilution, 24 hours, 37° C., read-out: minimal inhibitory concentration (MIC)): 50 µg/mL (≈ 128 µM); MIC (Prot.mirab. L 93; [9]): 2 µg/mL (≈ 5.12 µM); MIC (Staph.aureus A 2000 [5]; A2000, agar serial dilution, 24 hours, 37° C.): 1.5 µg/mL (≈ 3.84 µM); MIC (Bac.Subt.ATCC 6633; ATCC6633, agar serial dilution, 24 hours, 37° C.): 0.09 µg/mL (≈ 0.231 µM); MIC (Staph.aureus A 321; A321, agar serial dilution, 24 hours, 37° C.): 1.5 µg/mL (≈ 3.84 µM)
CC(=O)OCC1=C(C(=O)O)N2C(=O)[C@@H](NC(=O)Cc3nc(-c4c(C)cc(C)cc4C)no3)[C@H]2SC1 [Example 9, 7-{[3-(2,4,6-trimethylphenyl)-1,2,4-oxadiazol-5-yl]-acetamido}-cephalosporanic acid] | > 100 | 0.03 (≈ 0.0599 µM) | > 100 | 6 (≈ 12 µM) |  | > 100 | 50 (≈ 99.9 µM) | 0.15 (≈ 0.3 µM) | 100 (≈ 200 µM) | > 100 | 50 (≈ 99.9 µM) | > 100 | 0.25 (≈ 0.499 µM) | > 100 | > 100 | > 100 | > 100 | 125 (≈ 250 µM) | 1 (≈ 2 µM) | 0.11 (≈ 0.22 µM) | MIC (Esch.coli U 20; [15]): > 100 µg/mL; MIC (Prot.mirab. L 93; [12]): > 100 µg/mL; MIC (Staph.aureus A 2000 [5]; [16]): 1 µg/mL (≈ 2 µM); MIC (Bac.Subt.ATCC 6633; [17]): 0.06 µg/mL (≈ 0.12 µM); MIC (Staph.aureus A 321; [18]): 0.12 µg/mL (≈ 0.24 µM)
Cc1noc(CC(=O)N[C@@H]2C(=O)N3[C@@H]2SC(C)(C)[C@@H]3C(=O)O)n1 [Example 11B, sodium 6-[(3-methyl-1,2,4-oxadiazol-5-yl)-acetamido]-penicillanate H2 O] | 3 | 0.03 | > 100 | 6 |  |  | > 100 | > 12 |  | > 100 | 1 | > 100 | 0.25 | > 100 | 50 | > 100 | 50 | 125 | 50 | 2.5 | MIC (Staph.aureus A 2000 [6]): > 12 µg/mL; MIC (Salm.typh. R 127): 12.5 µg/mL; MIC (Salm.dubl. P 43; 24 h): 12.5 µg/mL; MIC (Staph.aureus A 2001 [7]): 3 µg/mL; MIC (Esch.coli U 20; [15]): 50 µg/mL; MIC (Prot.mirab. L 93; [12]): 3 µg/mL; MIC (Staph.aureus A 2000 [5]; [16]): 50 µg/mL; MIC (Bac.Subt.ATCC 6633; [17]): 0.03 µg/mL; MIC (Staph.aureus A 321; [18]): 0.12 µg/mL
CC1=C(C(=O)O)N2C(=O)[C@@H](NC(=O)Cc3ccccc3)[C@H]2SC1 [benzyldesacetoxy ceph., reference compound] |  |  |  |  | 25 (≈ 75.2 µM) |  |  |  | 100 (≈ 301 µM) |  |  |  |  |  |  |  |  |  |  |  | MIC (Shig.equir. T 3; 24 hours): 100 µg/mL (≈ 301 µM); MIC (Strep.haem. A 266; 24 h): 1 µg/mL (≈ 3.01 µM); MIC (Prot.morg. 2241; 24 h): > 100 µg/mL; MIC ([1]; 24 h): > 100 µg/mL; MIC (Prot.mirab. H 3; [19]): > 100 µg/mL; MIC (Strep. faec. L 80; 24 h): > 100 µg/mL; MIC (Prot.rettg. A 821; 24 h): > 100 µg/mL; MIC (Haem.infl. A 1030; 18 h): > 125 µg/mL; MIC (Salm.dubl. P 43; 24 h): > 100 µg/mL; MIC (Kleb.pneum. A 809; 24 h): 100 µg/mL (≈ 301 µM); MIC (Esch.coli U 20; U20, 24 h, read-out: minimal inhibitory concentration (MIC), agar serial dilution, 24 hours, 37° C.): > 100 µg/mL; MIC (Prot.mirab. L 93; [19]): 50 µg/mL (≈ 150 µM); MIC (Pseud.aerug. 2396; 24 h): > 100 µg/mL; MIC (Staph.aureus A 2000 [5]; A2000, 24 h): 12.5 µg/mL (≈ 37.6 µM); MIC (Bac.Subt.ATCC 6633; ATCC6633, 24 h): 0.5 µg/mL (≈ 1.5 µM); MIC (Past.multo. A 723; 24 h): 25 µg/mL (≈ 75.2 µM); MIC (Staph.aureus A 321; A321, 24 h): 1 µg/mL (≈ 3.01 µM); MIC (Pseud.aerug. H 10; 24 h): > 100 µg/mL; MIC (Dipl.pneum. L 54; 24 h): 3 µg/mL (≈ 9.03 µM)
